Experimental findings from PubChem BioAssay (NCI) are described below.

Among the test systems are 786-0 renal; A498 renal; ACHN renal; BT-549 breast; CAKI-1 renal; DU-145 prostate; HCT-15 colon; HOP-92 NSCLC; HS 578T breast; MDA-MB-435; NCI-H226 lung; NCI/ADR-RES ovarian; OVCAR-5 ovarian; PC-3 prostate; RXF 393 renal; SF-268 CNS; SNB-75 CNS; SR leukemia; TK-10 renal; M14 melanoma.
Common to all, as to assay: inhibition of tumour cell growth, NCI panel, 48 h

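Test compounds were applied to cells in 96-well plates for 48 hours at 5 doses. Definition used: TGI = concentration required for complete inhibition of growth.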 Some results are limits rather than exact numbers.

As for `COCCN(C(C)=O)C1CCC2(SCCS2)c2[nH]c3ccccc3c21` (centres undefined), the TGI in the assay on 786-0 renal, with A498 renal, in the assay on ACHN renal, in the assay with BT-549 breast, with CAKI-1 renal and in the assay with DU-145 prostate was > 100 µM each time. The TGI with HCT-15 colon, in the assay on HOP-92 NSCLC, with HS 578T breast, in the assay on MDA-MB-435, in the assay with NCI-H226 lung and with NCI/ADR-RES ovarian was > 100 µM each time. Also, the TGI in the assay with OVCAR-5 ovarian, in the assay on PC-3 prostate, with RXF 393 renal, in the assay with SF-268 CNS, with SNB-75 CNS and in the assay on SR leukemia was > 100 µM throughout. Besides, the TGI with TK-10 renal was > 100 µM.

Regarding `O=C1c2ccccc2S(=O)(=O)c2c1cccc2[N+](=O)[O-]`, the TGI is 3.13 µM with 786-0 renal; > 8.45 µM in the assay with A498 renal; 8.04 µM in the assay on ACHN renal; > 8.34 µM in the assay on BT-549 breast; 9.83 µM with CAKI-1 renal; > 10 µM in the assay with DU-145 prostate. Also, the TGI with HCT-15 colon was 2.95 µM; with HOP-92 NSCLC, 9 µM; with HS 578T breast, > 10 µM; in the assay on M14 melanoma it was 3.4 µM; in the assay with MDA-MB-435, 3.64 µM; in the assay on NCI-H226 lung, > 10 µM. The TGI is 6.55 µM in the assay on NCI/ADR-RES ovarian; > 10 µM in the assay on OVCAR-5 ovarian; > 9.02 µM with PC-3 prostate; 8.44 µM in the assay with RXF 393 renal; > 9.38 µM in the assay on SF-268 CNS; > 9.55 µM in the assay with SNB-75 CNS. Besides, the TGI is 5.28 µM with SR leukemia and > 10 µM in the assay with TK-10 renal.

Take `O=C(C1OC1c1ccc(O)cc1)C12CC3CC(CC(C3)C1)C2` (centres undefined): the TGI in the assay with 786-0 renal was 48.2 µM; in the assay on A498 renal, > 96.1 µM; with ACHN renal it was > 94.5 µM; in the assay with BT-549 breast it was > 81.8 µM; in the assay on CAKI-1 renal, > 66.1 µM; with DU-145 prostate it was > 100 µM. Further, the TGI in the assay on HCT-15 colon is > 100 µM; in the assay with HOP-92 NSCLC, 57.4 µM; in the assay on HS 578T breast, > 100 µM; in the assay on M14 melanoma, > 100 µM; in the assay on MDA-MB-435 it was > 55 µM; in the assay with NCI-H226 lung it was > 100 µM. Also, the TGI with NCI/ADR-RES ovarian, in the assay with OVCAR-5 ovarian, in the assay on PC-3 prostate, with RXF 393 renal, in the assay with SF-268 CNS and in the assay on SNB-75 CNS was > 100 µM each time. Besides, the TGI in the assay with SR leukemia and in the assay on TK-10 renal was > 100 µM throughout.

Turning to `COc1ccc2c(C)cc(N/N=C(\C)C=O)nc2c1`, the TGI with 786-0 renal was determined as 28.6 µM; in the assay on A498 renal, 27.9 µM; in the assay on ACHN renal, 29.7 µM; in the assay with BT-549 breast, 29.3 µM; in the assay with CAKI-1 renal, 27.8 µM; with DU-145 prostate, 24.7 µM. In addition, the TGI with HCT-15 colon worked out at 15.2 µM; in the assay on HOP-92 NSCLC, 25.1 µM; in the assay with HS 578T breast, 43.3 µM; with M14 melanoma it was 35.2 µM; with MDA-MB-435, 25.5 µM; in the assay with NCI-H226 lung, 24.7 µM. The TGI was determined as 25.7 µM in the assay with NCI/ADR-RES ovarian; 28.2 µM with OVCAR-5 ovarian; 24.2 µM in the assay with PC-3 prostate; 30.2 µM with RXF 393 renal; 41.1 µM with SF-268 CNS; 29.8 µM in the assay with SNB-75 CNS. The TGI in the assay with SR leukemia is 3.79 µM; with TK-10 renal, 30.1 µM.

On to `C=CC/C=C/Cc1csc(C(C)(C)C(O)C/C=C/C(=C)CCNC(=O)OC)n1` (centres undefined), for which the TGI in the assay with 786-0 renal, in the assay with A498 renal, in the assay on ACHN renal, with BT-549 breast, in the assay with CAKI-1 renal and in the assay with DU-145 prostate was > 100 µM throughout. In addition, the TGI in the assay with HCT-15 colon, in the assay with HOP-92 NSCLC, in the assay with HS 578T breast, in the assay with M14 melanoma, in the assay on MDA-MB-435 and in the assay on NCI-H226 lung was > 100 µM throughout. For the same compound, the TGI in the assay with NCI/ADR-RES ovarian is > 100 µM; with OVCAR-5 ovarian, > 100 µM; in the assay on PC-3 prostate it was > 100 µM; in the assay with RXF 393 renal, > 100 µM; with SF-268 CNS, > 100 µM; in the assay on SNB-75 CNS, > 83.8 µM. For the same compound, the TGI in the assay with SR leukemia and in the assay on TK-10 renal was > 100 µM throughout.

Turning to `Nc1ncnc2ccc(Sc3ccc4ncnc(N)c4c3)cc12`, the TGI with 786-0 renal, in the assay on A498 renal, with ACHN renal, with BT-549 breast, in the assay on CAKI-1 renal and in the assay with DU-145 prostate was > 100 µM each time. Further, the TGI in the assay on HCT-15 colon, in the assay with HOP-92 NSCLC, in the assay on HS 578T breast, in the assay with M14 melanoma, with MDA-MB-435 and with NCI-H226 lung was > 100 µM throughout. For the same compound, the TGI with NCI/ADR-RES ovarian, in the assay on OVCAR-5 ovarian, with PC-3 prostate, in the assay on RXF 393 renal, in the assay with SF-268 CNS and in the assay with SNB-75 CNS was > 100 µM throughout. Moreover, the TGI with SR leukemia and in the assay with TK-10 renal was > 100 µM each time.

In the case of `C=CCOc1ccc(/C(N=Nc2ccc([N+](=O)[O-])cc2)=N/NC(=O)c2ccccc2)cc1OC`, the TGI with 786-0 renal, in the assay on A498 renal, in the assay with ACHN renal, in the assay on BT-549 breast, in the assay with CAKI-1 renal and in the assay with DU-145 prostate was > 100 µM in each case. For the same compound, the TGI in the assay with HCT-15 colon, with HOP-92 NSCLC, in the assay with HS 578T breast, in the assay with M14 melanoma, in the assay with MDA-MB-435 and in the assay with NCI-H226 lung was > 100 µM each time. Moreover, the TGI in the assay on NCI/ADR-RES ovarian, in the assay on OVCAR-5 ovarian, in the assay on PC-3 prostate, in the assay on RXF 393 renal, with SF-268 CNS and in the assay with SNB-75 CNS was > 100 µM in each case. The TGI in the assay on SR leukemia and with TK-10 renal was > 100 µM throughout.
